Patent US10858335B2 (Rigel Pharmaceuticals, Inc., priority 2014, dated 2020)
pIC50: −log10 of the molar value.

system: GDF8 signaling (p-SMAD-3 (Ser423/425)); assay: AlphaScreen SureFire SMAD3 (p-Ser423/425) assay, GDF8-stimulated cells (GDF pSMAD); format: cell-based; details: Mus musculus, MPC-11, GDF8-stimulated pSMAD3, MPC11; tested as the salt form given; read-out: GDF pSMAD (MPC11) (μM), inhibition of GDF8 signaling

IC50 [µM]	Structure (SMILES)
0.737	Fc1cc(-c2ncccc2-c2ccc3ncsc3c2)c(F)c(F)c1F [compound 1054]
2.44	Nc1ncnc2ccc(-c3cc(F)cnc3-c3ccc(F)c(Cl)c3)cc12 [compound 998, 6-(2-(3-chloro-4-fluorophenyl)-5-fluoropyridin-3-yl)quinazolin-4-amine]
8	Cc1cc(F)c(F)cc1-c1ncccc1-c1ccc2ncnc(N)c2c1 [compound 987, 6-(2-(4,5-difluoro-2-methylphenyl)pyridin-3-yl)quinazolin-4-amine]

same assay, conditions: Mus musculus, MPC-11, MPC11; GDF8-stimulated; p-SMAD3 AlphaScreen; read-out: GDF pSMAD (MPC11) (inhibition of GDF8 signaling)

pIC50	Structure (SMILES)
6.26	Cc1cc(-c2ncccc2-c2ccn3ncc(C(=O)NCC4CCN(C)CC4)c3c2)ccc1F [compound 656, 5-(2-(4-Fluoro-3-methylphenyl)pyridin-3-yl)-N-((1-methylpiperidin-4-yl)methyl)pyrazolo[1,5-a]pyridine-3-carboxamide]
6.67	O=c1[nH]cnc2ccc(-c3cccnc3-c3cc(Cl)c(F)cc3F)cc12 [compound 823, 6-(2-(5-Chloro-2,4-difluorophenyl)pyridin-3-yl)quinazolin-4(3H)-one]
6.46	COc1cccc(-c2ncccc2-c2ccc3ncc(C#N)n3c2)c1 [compound 626, 6-(2-(3-Methoxyphenyl)pyridin-3-yl)imidazo[1,2-a]pyridine-3-carbonitrile]
5.05	Cc1cc(-c2ncccc2-c2ccc3cnccc3c2)ccc1F [compound 249, 6-(2-(4-Fluoro-3-methylphenyl)pyridin-3-yl)isoquinoline]
4.89	CCn1ncc2cc(-c3cccnc3-c3ccc(F)c(C)c3)ccc21 [Compound 184, 1-Ethyl-5-(2-(4-fluoro-3-methylphenyl)pyridin-3-yl)-1H-indazole]
6.36	Cc1cc(-c2ncccc2-c2ccc3ncc(C#N)n3c2)ccc1F [compound 557, 6-(2-(4-Fluoro-3-methylphenyl)pyridin-3-yl)imidazo[1,2-a]pyridine-3-carbonitrile]
5.77	FC(F)(F)c1cccc(-c2ncccc2-c2ccc3nccnc3c2)c1 [compound 542, 6-(2-(3-(Trifluoromethyl)phenyl)pyridin-3-yl)quinoxaline]
6.00	Cc1cccc(-c2ncccc2-c2ccc3c(=O)nc[nH]c3c2)c1 [compound 349, 7-(2-(m-Tolyl)pyridin-3-yl)quinazolin-4(1H)-one]
6.27	N#Cc1cnc2ccc(-c3cccnc3-c3cc(Cl)c(F)cc3F)nn12 [compound 951, 6-(2-(5-Chloro-2,4-difluorophenyl)pyridin-3-yl)imidazo[1,2-b]pyridazine-3-carbonitrile]
7.15	FC(F)Oc1cccc(-c2ncccc2-c2ccn3nccc3n2)c1 [compound 921, 5-(2-(3-(Difluoromethoxy)phenyl)pyridin-3-yl)pyrazolo[1,5-a]pyrimidine]
5.90	Fc1ccc(-c2ncccc2-c2ccc3ncccc3c2)cc1Cl [compound 688, 6-(2-(3-Chloro-4-fluorophenyl)pyridin-3-yl)quinoline]
4.92	COc1cc(-c2ncccc2-c2cnc3cn[nH]c3c2)ccc1F [Compound 143, 6-(2-(4-Fluoro-3-methoxyphenyl)pyridin-3-yl)-1H-pyrazolo[4,3-b]pyridine]
6.09	COc1cccc(-c2ncccc2-c2ccn3ncnc3c2)c1 [compound 880, 7-(2-(3-Methoxyphenyl)pyridin-3-yl)-[1,2,4]triazolo[1,5-a]pyridine]
6.13	CN(C)CCOc1ncnc2ccc(-c3cccnc3-c3ccc(F)c(Cl)c3)cc12 [compound 439, 2-((6-(2-(3-Chloro-4-fluorophenyl)pyridin-3-yl)quinazolin-4-yl)oxy)-N,N-dimethylethan-1-amine]
5.51	COc1ncnc2ccc(-c3cccnc3-c3cc(Cl)ccc3F)cc12 [compound 820, 6-(2-(5-Chloro-2-fluorophenyl)pyridin-3-yl)-4-methoxyquinazoline]
6.64	Cc1cnc2ccc(-c3cccnc3-c3cc(Cl)ccc3F)cn12 [compound 767, 6-(2-(5-Chloro-2-fluorophenyl)pyridin-3-yl)-3-methylimidazo[1,2-a]pyridine]
6.29	CCCNC(=O)c1cnc2ccc(-c3cccnc3-c3ccc(F)c(C)c3)cn12 [compound 583, 6-(2-(4-Fluoro-3-methylphenyl)pyridin-3-yl)-N-propylimidazo[1,2-a]pyridine-3-carboxamide]
5.36	Cc1cc(-c2ncccc2-c2cnc3cn[nH]c3c2)ccc1F [Compound 138, 6-(2-(4-Fluoro-3-methylphenyl)pyridin-3-yl)-1H-pyrazolo[4,3-b]pyridine]
4.74	Cc1cc(-c2ncccc2-c2ccc3ccncc3c2)ccc1F [Compound 209, 7-(2-(4-Fluoro-3-methylphenyl)pyridin-3-yl)isoquinoline]
6.84	Clc1cccc(-c2ncccc2-c2ccc3nccn3c2)c1 [compound 698, 6-(2-(3-Chlorophenyl)pyridin-3-yl)imidazo[1,2-a]pyridine]
6.40	N#Cc1cnc2ccc(-c3cccnc3-c3cc(Cl)ccc3F)cn12 [compound 719, 6-(2-(5-Chloro-2-fluorophenyl)pyridin-3-yl)imidazo[1,2-a]pyridine-3-carbonitrile]
6.40	Cc1cc(-c2ncccc2-c2ccc3ncnc(Oc4ccc5ncccc5c4)c3c2)ccc1F [compound 446, 6-(2-(4-Fluoro-3-methylphenyl)pyridin-3-yl)-4-(quinolin-6-yloxy)quinazoline]
6.44	Cc1cc(-c2ncccc2-c2ccn3nccc3c2)ccc1F [compound 756, 5-(2-(4-Fluoro-3-methylphenyl)pyridin-3-yl)pyrazolo[1,5-a]pyridine]
6.58	Cc1cccc(-c2ncccc2-c2cnc3[nH]ncc3c2)c1 [Compound 79, 5-(2-m-Tolylpyridin-3-yl)-1H-pyrazolo[3,4-b]pyridine]
6.15	Cc1cc(-c2ncccc2-c2ccc3ncc(C(=O)NCCN(C)C)n3c2)ccc1F [compound 607, N-(2-(Dimethylamino)ethyl)-6-(2-(4-fluoro-3-methylphenyl)pyridin-3-yl)imidazo[1,2-a]pyridine-3-carboxamide]

More lines, now with the values behind:

Structure (SMILES)	pIC50
O=C(NCCCN1CCCC1=O)c1cnc2ccc(-c3cccnc3-c3cc(Cl)ccc3F)cn12 [compound 729, 6-(2-(5-Chloro-2-fluorophenyl)pyridin-3-yl)-N-(3-(2-oxopyrrolidin-1-yl)propyl)imidazo[1,2-a]pyridine-3-carboxamide]	6.54
Cc1cc(-c2ncccc2-c2ccc3ncnc(Oc4cccc(C#N)c4)c3c2)ccc1F [compound 441, 3-((6-(2-(4-Fluoro-3-methylphenyl)pyridin-3-yl)quinazolin-4-yl)oxy)benzonitrile]	5.94
Cc1cc(-c2ncccc2-c2ccc3ncc(C(=O)NCC45CCCN4CCC5)n3c2)ccc1F [compound 802, 6-(2-(4-Fluoro-3-methylphenyl)pyridin-3-yl)-N-((tetrahydro-1H-pyrrolizin-7a(5H)-yl)methyl)imidazo[1,2-a]pyridine-3-carboxamide]	5.23
Cc1cccc(-c2ncccc2-c2ccc3ncncc3c2)c1 [compound 364, 6-(2-(m-Tolyl)pyridin-3-yl)quinazoline]	6.47
Fc1ccc(-c2ncccc2-c2ccn3nccc3n2)c(F)c1Cl [compound 965, 5-(2-(3-Chloro-2,4-difluorophenyl)pyridin-3-yl)pyrazolo[1,5-a]pyrimidine]	5.29
Nc1noc2cc(-c3cccnc3-c3ccc(F)c(Cl)c3)ccc12 [compound 797, 6-(2-(3-Chloro-4-fluorophenyl)pyridin-3-yl)benzo[d]isoxazol-3-amine]	5.42
Fc1ccccc1-c1ncccc1-c1ccc2ncsc2c1 [compound 657, 6-(2-(2-Fluorophenyl)pyridin-3-yl)benzo[d]thiazole]	5.46
FC(F)(F)Oc1cccc(-c2ncccc2-c2ccc3ncnn3c2)c1 [compound 780, 6-(2-(3-(Trifluoromethoxy)phenyl)pyridin-3-yl)-[1,2,4]triazolo[1,5-a]pyridine]	6.14
Fc1ccc(-c2ncccc2-c2ccn3nccc3n2)cc1C1CC1 [compound 896, 5-(2-(3-Cyclopropyl-4-fluorophenyl)pyridin-3-yl)pyrazolo[1,5-a]pyrimidine]	7.03
Cc1cc(-c2ncccc2-c2ccc3ncnc(Oc4cccc(N5CCOCC5)c4)c3c2)ccc1F [compound 444, 4-(3-((6-(2-(4-Fluoro-3-methylphenyl)pyridin-3-yl)quinazolin-4-yl)oxy)phenyl)morpholine]	5.97
Fc1cccc(-c2ncccc2-c2ccc3[nH]ncc3c2)c1 [Compound 65, 5-[2-(3-Fluorophenyl)pyridin-3-yl]-1H-indazole]	5.65
[2H]C([2H])([2H])c1cccc(-c2ncccc2-c2ccc3ncsc3c2)c1 [compound 603, 6-(2-(3-(Methyl-d3)phenyl)pyridin-3-yl)benzo[d]thiazole]	6.96
Cc1cc(-c2ncccc2-c2ccc3ncnc(OCCN4CCCC4)c3c2)ccc1F [compound 443, 6-(2-(4-Fluoro-3-methylphenyl)pyridin-3-yl)-4-(2-(pyrrolidin-1-yl)ethoxy)quinazoline]	6.37
Nc1n[nH]c2cc(-c3cccnc3-c3ccc(F)c(Cl)c3)ccc12 [compound 800, 6-(2-(3-Chloro-4-fluorophenyl)pyridin-3-yl)-1H-indazol-3-amine]	6.06
N#Cc1cnc2ccc(-c3cccnc3-c3cc(Cl)ccc3F)nn12 [compound 950, 6-(2-(5-Chloro-2-fluorophenyl)pyridin-3-yl)imidazo[1,2-b]pyridazine-3-carbonitrile]	6.89
Cc1cc(-c2ncccc2-c2ccc3c(cnn3C)c2)ccc1F [Compound 145, 5-(2-(4-Fluoro-3-methylphenyl)pyridin-3-yl)-1-methyl-1H-indazole]	5.95
CC(=O)NCCNC(=O)c1cnc2ccc(-c3cccnc3-c3ccc(F)c(C)c3)cn12 [compound 815, N-(2-Acetamidoethyl)-6-(2-(4-fluoro-3-methylphenyl)pyridin-3-yl)imidazo[1,2-a]pyridine-3-carboxamide]	6.03
